Measured values: patent US9370515B2, “Mixed lineage kinase inhibitors and method of treatments” (CALIFIA BIO, INC., priority 2013, dated 2016)

biological target: MLK-3 (Homo sapiens, UniProt Q16584); assay: Biochemical assay for the inhibition of kinase activity for MLK-3 (33P-ATP, HOTSPOT filter binding); details: activated MLK-3 20 nM, ATP 50 μM, myelin basic protein 20 μM, 20 minutes room temperature
Description: Biochemical Assay for the Inhibition of Kinase Activity for MLK-3: Myelin basic protein (20 μM final concentration) is dissolved in 20 mM Hepes (pH 7.5) containing […], […], 0.02% Brij35, 0.02 mg/ml BSA, 0.1 μM Na3VO4, 2 mM DTT, and 1% DMSO. Activated MLK-3 is added and mixed (20 nM final concentration), and inhibitors are added in DMSO. ^33P-ATP (specific activity 500 μCi/μL) is delivered into the reaction mixture to initiate the reaction (ATP concentration is 50 μM) and the mixture is incubated at room temperature for 20 minutes. % Activity is determined using a proprietary HOTSPOT™ microfluidic filter binding technology. See, Expert Opin. Drug Discov. 2008 June; 3(6): 607-621.

Sequence of MLK-3 (Q16584 whole entry): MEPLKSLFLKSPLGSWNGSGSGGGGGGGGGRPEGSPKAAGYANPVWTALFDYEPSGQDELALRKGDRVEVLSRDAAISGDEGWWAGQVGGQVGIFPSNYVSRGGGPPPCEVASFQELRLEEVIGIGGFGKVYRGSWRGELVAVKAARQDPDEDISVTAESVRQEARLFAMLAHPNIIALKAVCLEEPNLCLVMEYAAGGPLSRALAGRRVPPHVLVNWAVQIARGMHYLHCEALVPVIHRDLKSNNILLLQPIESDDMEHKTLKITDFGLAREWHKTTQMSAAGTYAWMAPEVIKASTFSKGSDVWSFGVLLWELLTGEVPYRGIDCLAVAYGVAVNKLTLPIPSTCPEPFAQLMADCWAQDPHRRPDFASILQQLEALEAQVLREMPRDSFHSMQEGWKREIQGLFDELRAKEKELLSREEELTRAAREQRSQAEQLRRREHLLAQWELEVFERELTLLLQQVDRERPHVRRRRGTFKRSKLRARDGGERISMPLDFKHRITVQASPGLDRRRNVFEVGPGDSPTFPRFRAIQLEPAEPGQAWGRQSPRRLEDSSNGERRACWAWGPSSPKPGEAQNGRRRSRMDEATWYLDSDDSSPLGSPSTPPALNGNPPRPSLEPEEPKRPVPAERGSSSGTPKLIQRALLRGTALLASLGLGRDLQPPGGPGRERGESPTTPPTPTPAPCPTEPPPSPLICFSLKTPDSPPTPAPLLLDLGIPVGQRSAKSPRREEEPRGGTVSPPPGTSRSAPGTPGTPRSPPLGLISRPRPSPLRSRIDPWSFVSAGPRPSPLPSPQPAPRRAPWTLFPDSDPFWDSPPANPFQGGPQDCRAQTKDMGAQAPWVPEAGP

Compound	IC50
OCCCCNc1ccc2ncc(-c3cc4ccccc4s3)n2n1 [Compound 110, 4-(3-(benzo[b]thiophen-2-yl)imidazo[1,2-b]pyridazin-6-ylamino)butan-1-ol]	100 to 500 nM
Cc1nc2ccc(N[C@H]3CC[C@H](O)CC3)nn2c1-c1cc2ccccc2s1 [Compound 111, 4-(3-(benzo[b]thiophen-2-yl)-2-methylimidazo[1,2-b]pyridazin-6-ylamino)cyclohexanol]	< 5000 nM
OCCN1CCN(c2ccc3ncc(-c4cc5ccccc5s4)n3n2)CC1 [Compound 119, 2-(4-(3-(benzo[b]thiophen-2-yl)imidazo[1,2-b]pyridazin-6-yl)piperazin-1-yl)ethanol]	< 5000 nM
OC[C@H]1CCCN1c1ccc2ncc(-c3cc4ccccc4s3)n2n1 [Compound 126, ((R)-1-(3-(benzo[b]thiophen-2-yl)imidazo[1,2-b]pyridazin-6-yl)pyrrolidin-2-yl)methanol]	< 5000 nM
OC[C@@H]1CCCN1c1ccc2ncc(-c3cc4ccccc4s3)n2n1 [Compound 127, ((S)-1-(3-(benzo[b]thiophen-2-yl)imidazo[1,2-b]pyridazin-6-yl)pyrrolidin-2-yl)methanol]	< 5000 nM
COC(=O)C1CCCN(c2ccc3ncc(-c4cc5ccccc5s4)n3n2)C1 (stereo not drawn) [Compound 131, methyl 1-(3-(benzo[b]thiophen-2-yl)imidazo[1,2-b]pyridazin-6-yl)piperidine-3-carboxylate]	< 5000 nM
OCC1CCCN(c2ccc3ncc(-c4cc5ccccc5s4)n3n2)C1 (stereo not drawn) [Compound 132, (1-(3-(benzo[b]thiophen-2-yl)imidazo[1,2-b]pyridazin-6-yl)piperidin-3-yl)methanol]	500 to 1000 nM
OCCCCCNc1ccc2ncc(-c3cc4ccccc4s3)n2n1 [Compound 135, 5-(3-(benzo[b]thiophen-2-yl)imidazo[1,2-b]pyridazin-6-ylamino)pentan-1-ol]	100 to 500 nM
CN1CCN(CCCNc2ccc3ncc(-c4cc5ccccc5s4)n3n2)CC1 [Compound 136, 3-(benzo[b]thiophen-2-yl)-N-(3-(4-methylpiperazin-1-yl)propyl)imidazo[1,2-b]pyridazin-6-amine]	< 5000 nM
CC(CO)CCNc1ccc2ncc(-c3cc4ccccc4s3)n2n1 (stereo not drawn) [Compound 138, 4-(3-(benzo[b]thiophen-2-yl)imidazo[1,2-b]pyridazin-6-ylamino)-2-methylbutan-1-ol]	100 to 500 nM
OC[C@H]1CC[C@H](Nc2ccc3ncc(-c4cc5ccccc5s4)n3n2)CC1 [Compound 139]	100 to 500 nM
CCCNc1ccc2ncc(-c3ccc4[nH]ccc4c3)n2n1 [Compound 140, 3-(1H-indol-5-yl)-N-propylimidazo[1,2-b]pyridazin-6-amine]	< 5000 nM
CC(C)CNc1ccc2ncc(-c3ccc4[nH]ccc4c3)n2n1 [Compound 142, 3-(1H-indol-5-yl)-N-isobutylimidazo[1,2-b]pyridazin-6-amine]	< 5000 nM
c1cc2cc(-c3cnc4ccc(NCC5CC5)nn34)ccc2[nH]1 [Compound 150, N-(cyclopropylmethyl)-3-(1H-indol-5-yl)imidazo[1,2-b]pyridazin-6-amine]	< 5000 nM
CCCN(C)c1ccc2ncc(-c3ccc4[nH]ccc4c3)n2n1 [Compound 158, 3-(1H-indol-5-yl)-N-methyl-N-propylimidazo[1,2-b]pyridazin-6-amine]	< 5000 nM
OCCCCNc1ccc2ncc(-c3ccc4ccccc4c3)n2n1 [Compound 160, 4-(3-(naphthalen-3-yl)imidazo[1,2-b]pyridazin-6-ylamino)butan-1-ol]	500 to 1000 nM
O[C@H]1CC[C@H](Nc2ccc3ncc(-c4ccc5ccccc5c4)n3n2)CC1 [Compound 161, trans-4-(3-(naphthalen-3-yl)imidazo[1,2-b]pyridazin-6-ylamino)cyclohexanol]	100 to 500 nM
O[C@H]1CC[C@H](Nc2ccc3ncc(-c4ccc5cc(F)ccc5c4)n3n2)CC1 [Compound 162, trans-4-(3-(2-fluoronaphthalen-6-yl)imidazo[1,2-b]pyridazin-6-ylamino)cyclohexanol]	500 to 1000 nM
COc1ccc2cc(-c3cnc4ccc(N[C@H]5CC[C@H](O)CC5)nn34)ccc2c1 [Compound 163, trans-4-(3-(2-methoxynaphthalen-6-yl)imidazo[1,2-b]pyridazin-6-ylamino)cyclohexanol]	500 to 1000 nM
Cc1c(-c2cnc3ccc(N[C@H]4CC[C@H](O)CC4)nn23)sc2ccc(Cl)cc12 [Compound 164, trans-4-(3-(5-chloro-3-methylbenzo[b]thiophen-2-yl)imidazo[1,2-b]pyridazin-6-ylamino)cyclohexanol]	500 to 1000 nM
O[C@H]1CC[C@H](Nc2ccc3ncc(-c4cc5cc(F)ccc5s4)n3n2)CC1 [Compound 166, trans-4-(3-(5-fluorobenzo[b]thiophen-2-yl)imidazo[1,2-b]pyridazin-6-ylamino)cyclohexanol]	500 to 1000 nM
COc1ccc2sc(-c3cnc4ccc(Nc5ccc(OC)c(OC)c5)nn34)cc2c1 [Compound 167, 3-(5-methoxybenzo[b]thiophen-2-yl)-N-(3,4-dimethoxyphenyl)imidazo[1,2-b]pyridazin-6-amine]	100 to 500 nM
COc1ccc2sc(-c3cnc4ccc(N[C@H]5CC[C@H](O)CC5)nn34)cc2c1 [Compound 168, trans-4-(3-(5-methoxybenzo[b]thiophen-2-yl)imidazo[1,2-b]pyridazin-6-ylamino)cyclohexanol]	100 to 500 nM
COc1cc2cc(-c3cnc4ccc(NCCC(C)CO)nn34)sc2cc1OC (stereo not drawn) [Compound 171, 4-(3-(5,6-dimethoxybenzo[b]thiophen-2-yl)imidazo[1,2-b]pyridazin-6-ylamino)-2-methylbutan-1-ol]	< 100 nM
COc1ccc2cc(-c3cnc4ccc(N[C@H]5CC[C@H](O)CC5)nn34)sc2c1 [Compound 172, trans-4-(3-(6-methoxybenzo[b]thiophen-2-yl)imidazo[1,2-b]pyridazin-6-ylamino)cyclohexanol]	100 to 500 nM
COc1cc2cc(-c3cnc4ccc(N[C@H]5CC[C@](C)(O)CC5)nn34)sc2cc1OC [Compound 173, (1r,4r)-4-(3-(5,6-dimethoxybenzo[b]thiophen-2-yl)imidazo[1,2-b]pyridazin-6-ylamino)-1-methylcyclohexanol]	< 100 nM
COc1cc2sc(-c3cnc4ccc(N[C@H]5CC[C@H](O)CC5)nn34)cc2c(OC)c1OC [Compound 176, trans-4-(3-(4,5,6-trimethoxybenzo[b]thiophen-2-yl)imidazo[1,2-b]pyridazin-6-ylamino)cyclohexanol]	100 to 500 nM
COc1cc2cc(-c3cnc4ccc(N(C)[C@H]5CC[C@H](O)CC5)nn34)sc2cc1OC [Compound 177, trans-4-(N-(3-(5,6-dimethoxybenzo[b]thiophen-2-yl)imidazo[1,2-b]pyridazin-6-yl)-N-methylamino)cyclohexanol]	< 100 nM
CC(C)Oc1cccc2cc(-c3cnc4ccc(N[C@H]5CC[C@H](O)CC5)nn34)sc12 [Compound 178, trans-4-(3-(7-isopropoxybenzo[b]thiophen-2-yl)imidazo[1,2-b]pyridazin-6-ylamino)cyclohexanol]	100 to 500 nM
COc1cc2cc(-c3cnc4ccc(N[C@H]5CC[C@H](O)CC5)nn34)sc2c(OC)c1OC [Compound 179, trans-4-(3-(5,6,7-trimethoxybenzo[b]thiophen-2-yl)imidazo[1,2-b]pyridazin-6-ylamino)cyclohexanol]	< 100 nM
